Data from ChEMBL document CHEMBL5550210, “Discovery of Novel α,β-Unsaturated Amide Derivatives as Candidate Antifungals to Overcome Fungal Resistance” (J Med Chem, 2024).
Converted amounts (≈) assume the structure as drawn. The source made the active and inactive calls. The rule behind the calls is not given here.

Legend:
Nakaseomyces glabratus = assay: Antifungal activity against Candida glabrata assessed as inhibition of fungal growth by CLSI protocol based microdilution method; type: functional
Pichia kudriavzevii = assay: Antifungal activity against Candida krusei AS 2.1045 assessed as inhibition of fungal growth by CLSI protocol based microdilution method; type: functional
Candida tropicalis = assay: Antifungal activity against Candida tropicalis CGMCC 2.3739 assessed as inhibition of fungal growth by CLSI protocol based microdilution method; type: functional
Aspergillus fumigatus = assay: Antifungal activity against Aspergillus fumigatus CGMCC 3.7795 assessed as inhibition of fungal growth by CLSI protocol based microdilution method; type: functional
[1] = Metabolic stability in mouse liver microsomes assessed as half life; type: ADME, Microsome
[2] = Stability in mouse plasma assessed as parent compound remaining measured at 180 mins; type: ADME, cell-free; settings: read-out: Stability
Candida albicans [3] = assay: Antifungal activity against fluconazole-resistant Candida albicans 904 assessed as inhibition of fungal growth by CLSI based microdilution method; type: functional
Candida albicans [4] = assay: Ratio of MFC for fungicidal activity against Candida albicans to MIC for antifungal activity against Candida albicans; type: functional
[5] = Acute toxicity in rat assessed as Low-observed adverse effect level at po administration; type: organism-based; settings: in vivo
[6] = Acute toxicity in Kunming mouse assessed as animal death at 1000 mg/kg,po administrated for 7 days; type: organism-based; settings: in vivo, 168 h, time 7 day
[7] = Acute toxicity in Kunming mouse assessed as behavioral change at 1000 mg/kg,po administrated for 7 days; type: organism-based; settings: in vivo, 168 h, time 7 day
[8] = Subacute toxicity in Kunming mouse assessed as animal death at 100 mg/kg,po administrated once daily for 14 days; type: organism-based; settings: in vivo, 336 h, time 14 day
[9] = Subacute toxicity in Kunming mouse assessed as behavioral change at 100 mg/kg,po administrated once daily for 14 days; type: organism-based; settings: in vivo, 336 h, time 14 day
[10] = Half life in Sprague-Dawley rat at 2 mg/kg,iv by LC-MS/MS analysis; type: ADME, organism-based; settings: in vivo
[11] = Half life in Sprague-Dawley rat at 5 mg/kg,po by LC-MS/MS analysis; type: ADME, organism-based; settings: in vivo
[12] = Tmax in Sprague-Dawley rat at 5 mg/kg,po by LC-MS/MS analysis; type: ADME, organism-based; settings: in vivo
[13] = AUC (0 to infinity) in Sprague-Dawley rat at 2 mg/kg,iv by LC-MS/MS analysis; type: ADME, organism-based; settings: in vivo
[14] = AUC (0 to infinity) in Sprague-Dawley rat at 5 mg/kg,po by LC-MS/MS analysis; type: ADME, organism-based; settings: in vivo
[15] = Clearance in Sprague-Dawley rat at 2 mg/kg,iv by LC-MS/MS analysis; type: ADME, organism-based; settings: in vivo
[16] = MRTinfinity in Sprague-Dawley rat at 2 mg/kg,iv by LC-MS/MS analysis; type: ADME, organism-based; settings: in vivo
[17] = MRTinfinity in Sprague-Dawley rat at 5 mg/kg,po by LC-MS/MS analysis; type: ADME, organism-based; settings: in vivo
[18] = Volume of distribution at steady state in Sprague-Dawley rat at 2 mg/kg,iv by LC-MS/MS analysis; type: ADME, organism-based; settings: in vivo, read-out: Vdss
[19] = Oral bioavailability in Sprague-Dawley rat at 5 mg/kg by LC-MS/MS analysis; type: ADME, organism-based; settings: in vivo
Candida albicans [20] = assay: Antifungal activity against Candida albicans SC5314 assessed as fungal cell membrane injury at 16 ug/ml incubated for 24 hrs by transmission electron microscopic analysis; type: functional, organism-based; settings: dose 16.0 µg/ml
Candida albicans [21] = assay: Antifungal activity against Candida albicans SC5314 assessed as leakage of endogenous substances at 16 ug/ml incubated for 24 hrs by transmission electron microscopic analysis; type: functional, organism-based; settings: dose 16.0 µg/ml
Candida albicans [22] = assay: Antifungal activity against fluconazole-resistant Candida albicans 904 assessed as inhibition of hyphae formation at 16 ug/ml incubated for 4 hrs by inverted microscopic analysis; type: functional, organism-based; settings: dose 16.0 µg/ml
Candida albicans [23] = assay: Antifungal activity against fluconazole-resistant Candida albicans 904 assessed as inhibition of fungal biofilm formation incubated for 24 hrs by XTT assay; type: functional, organism-based
Candida albicans [24] = assay: Antifungal activity against Candida albicans CPCC400616 assessed as downregulation of EFG1 gene expression at 2 ug/ml incubated for 12 hrs by RT-PCR analysis; type: functional, organism-based; settings: dose 2.0 µg/ml
Candida albicans [25] = assay: Antifungal activity against fluconazole-resistant Candida albicans 904 assessed as downregulation of EFG1 gene expression at 16 ug/ml incubated for 12 hrs by RT-PCR analysis; type: functional, organism-based; settings: dose 16.0 µg/ml
Candida albicans [26] = assay: Antifungal activity against fluconazole-resistant Candida albicans 904 assessed as downregulation of ALS3 gene expression at 16 ug/ml incubated for 12 hrs by RT-PCR analysis; type: functional, organism-based; settings: dose 16.0 µg/ml
Candida albicans [27] = assay: Antifungal activity against fluconazole-resistant Candida albicans 904 assessed as downregulation of ERG11 gene expression at 16 ug/ml incubated for 16 hrs by RT-PCR analysis; type: functional, organism-based; settings: dose 16.0 µg/ml
Candida albicans [28] = assay: Antifungal activity against fluconazole-resistant Candida albicans 904 assessed as downregulation of CDR1 gene expression at 16 ug/ml incubated for 16 hrs by RT-PCR analysis; type: functional, organism-based; settings: dose 16.0 µg/ml
Candida albicans [29] = assay: Antifungal activity against fluconazole-resistant Candida albicans 904 assessed as downregulation of MDR1 gene expression at 16 ug/ml incubated for 16 hrs by RT-PCR analysis; type: functional, organism-based; settings: dose 16.0 µg/ml
Candida albicans [30] = assay: Fungicidal activity against fluconazole-resistant Candida albicans 904 assessed as reduction in colony forming units at 32 times MIC incubated for 24 hrs by time-kill curve assay; type: functional
Candida albicans [31] = assay: Antifungal activity against Candida albicans SC5314 infected ICR mouse model assessed as reduction in fungal burden in kidney at ip administration for 5 days; type: functional, organism-based; settings: time 5.0 day
Candida albicans [32] = assay: Antifungal activity against fluconazole-resistant Candida albicans 904 infected ICR mouse model assessed as reduction in fungal burden in kidney at 10 to 20 mg/kg,ip administration for 5 days; type: functional, organism-based; settings: dose 10-20 mg/kg, time 5.0 day
Candida albicans [33] = assay: Antifungal activity against fluconazole-resistant Candida albicans 904 infected ICR mouse model assessed as median survival time at 10 mg/kg,ip administration for 14 days; type: functional; settings: time 14 day
Candida albicans [34] = assay: Antifungal activity against fluconazole-resistant Candida albicans 904 infected ICR mouse model assessed as median survival time at 20 mg/kg,ip administration for 14 days; type: functional; settings: time 14 day
[35] = Acute toxicity in Kunming mouse assessed as change in body weight at 1000 mg/kg,po administrated for 7 days; type: organism-based; settings: in vivo, 168 h, time 7 day
[36] = Acute toxicity in Kunming mouse assessed as increase in body weight at 100 mg/kg,po administrated once daily for 14 days; type: organism-based; settings: in vivo, 336 h, time 14 day
[37] = Acute toxicity in Kunming male mouse assessed as kidney damage at 100 mg/kg,po administrated for 7 days by hematoxylin and eosin staining based microscopic analysis; type: organism-based; settings: in vivo, 168 h, time 7 day
[38] = Acute toxicity in Kunming female mouse assessed as kidney damage at 100 mg/kg,po administrated for 7 days by hematoxylin and eosin staining based microscopic analysis; type: organism-based; settings: in vivo, 168 h, time 7 day
[39] = Acute toxicity in Kunming male mouse assessed as liver damage at 100 mg/kg,po administrated for 7 days by hematoxylin and eosin staining based microscopic analysis; type: organism-based; settings: in vivo, 168 h, time 7 day
[40] = Acute toxicity in Kunming female mouse assessed as liver damage at 100 mg/kg,po administrated for 7 days by hematoxylin and eosin staining based microscopic analysis; type: organism-based; settings: in vivo, 168 h, time 7 day

CCCCNC(=O)/C=C/c1ccc(COC(Cn2ccnc2)c2ccc(Cl)cc2Cl)cc1 (stereo unspecified)
MIC (Nakaseomyces glabratus): 4 µg/mL (≈ 8.47 µM) | MIC (Pichia kudriavzevii): 2 µg/mL (≈ 4.23 µM) | MIC (Candida tropicalis): 64 µg/mL (≈ 135 µM) | MIC (Aspergillus fumigatus): 0.5 µg/mL (≈ 1.06 µM) | half-life [1]: 1 h | remaining at 3 h [2]: 102% | MIC (Candida albicans [3]): 1 µg/mL (≈ 2.12 µM) | Ratio (Candida albicans [4]): 16 | LOAEL [5]: 1.138 mg/kg | Activity [6]: Non-Toxic | Activity [7]: Non-Toxic | Activity [8]: Non-Toxic | Activity [9]: Non-Toxic | half-life [10]: 1.72 h | half-life [11]: 1.23 h | Tmax [12]: 1 h | AUC(0-inf) [13]: 1410 ng·h/mL | AUC(0-inf) [14]: 452 ng·h/mL | clearance [15]: 23.7 mL/min/kg | MRT inf [16]: 1.24 h | MRT inf [17]: 1.93 h | Vd [18]: 1.76 L/kg | bioavailability [19]: 12.8% | Activity (Candida albicans [20]): Active | Activity (Candida albicans [21]): Active | Activity (Candida albicans [22]): Active | Activity (Candida albicans [23]): Dose-Dependent Effect | Activity (Candida albicans [24]): Active | Activity (Candida albicans [25]): Active | Activity (Candida albicans [26]): Active | Activity (Candida albicans [27]): Active | Activity (Candida albicans [28]): Active | Activity (Candida albicans [29]): Active | Activity (Candida albicans [30]): 2 log10CFU/ml | Activity (Candida albicans [31]): Dose-Dependent Effect | Activity (Candida albicans [32]): Active | MST (Candida albicans [33]): 10 days | MST (Candida albicans [34]): 13.52 days | Activity [35]: Non-Toxic | Activity [36]: Toxic | Activity [37]: Toxic | Activity [38]: Non-Toxic | Activity [39]: Toxic | Activity [40]: Toxic

O=C(/C=C/c1ccc(COC(Cn2ccnc2)c2ccc(Cl)cc2Cl)cc1)Nc1ccc(Cl)cc1Cl (stereo unspecified)
MIC (Nakaseomyces glabratus): 1 µg/mL (≈ 1.78 µM) | MIC (Pichia kudriavzevii): 0.5 µg/mL (≈ 0.891 µM) | MIC (Candida tropicalis): 2 µg/mL (≈ 3.56 µM) | MIC (Aspergillus fumigatus): 0.5 µg/mL (≈ 0.891 µM) | half-life [1]: 0.493 h | remaining at 3 h [2]: 97.8% | MIC (Candida albicans [3]): 1 µg/mL (≈ 1.78 µM) | Ratio (Candida albicans [4]): 32 | LOAEL [5]: 0.452 mg/kg | Activity (Candida albicans [22]): Active | Activity (Candida albicans [23]): Dose-Dependent Effect | Activity (Candida albicans [24]): Active | Activity (Candida albicans [25]): Active | Activity (Candida albicans [26]): Active | Activity (Candida albicans [27]): Active | Activity (Candida albicans [28]): Active | Activity (Candida albicans [29]): Active
